Results reported in patent US8796295B2, “Substituted benzamide analogs as mGluR5 negative allosteric modulators and methods of making and using the same” (priority 2009, dated 2014).

What follows are compounds tested against rat mGluR5 (Rattus norvegicus (Rat), UniProt P31424) (assay: cell-based).
Chain of rat mGluR5 (P31424 21-1203): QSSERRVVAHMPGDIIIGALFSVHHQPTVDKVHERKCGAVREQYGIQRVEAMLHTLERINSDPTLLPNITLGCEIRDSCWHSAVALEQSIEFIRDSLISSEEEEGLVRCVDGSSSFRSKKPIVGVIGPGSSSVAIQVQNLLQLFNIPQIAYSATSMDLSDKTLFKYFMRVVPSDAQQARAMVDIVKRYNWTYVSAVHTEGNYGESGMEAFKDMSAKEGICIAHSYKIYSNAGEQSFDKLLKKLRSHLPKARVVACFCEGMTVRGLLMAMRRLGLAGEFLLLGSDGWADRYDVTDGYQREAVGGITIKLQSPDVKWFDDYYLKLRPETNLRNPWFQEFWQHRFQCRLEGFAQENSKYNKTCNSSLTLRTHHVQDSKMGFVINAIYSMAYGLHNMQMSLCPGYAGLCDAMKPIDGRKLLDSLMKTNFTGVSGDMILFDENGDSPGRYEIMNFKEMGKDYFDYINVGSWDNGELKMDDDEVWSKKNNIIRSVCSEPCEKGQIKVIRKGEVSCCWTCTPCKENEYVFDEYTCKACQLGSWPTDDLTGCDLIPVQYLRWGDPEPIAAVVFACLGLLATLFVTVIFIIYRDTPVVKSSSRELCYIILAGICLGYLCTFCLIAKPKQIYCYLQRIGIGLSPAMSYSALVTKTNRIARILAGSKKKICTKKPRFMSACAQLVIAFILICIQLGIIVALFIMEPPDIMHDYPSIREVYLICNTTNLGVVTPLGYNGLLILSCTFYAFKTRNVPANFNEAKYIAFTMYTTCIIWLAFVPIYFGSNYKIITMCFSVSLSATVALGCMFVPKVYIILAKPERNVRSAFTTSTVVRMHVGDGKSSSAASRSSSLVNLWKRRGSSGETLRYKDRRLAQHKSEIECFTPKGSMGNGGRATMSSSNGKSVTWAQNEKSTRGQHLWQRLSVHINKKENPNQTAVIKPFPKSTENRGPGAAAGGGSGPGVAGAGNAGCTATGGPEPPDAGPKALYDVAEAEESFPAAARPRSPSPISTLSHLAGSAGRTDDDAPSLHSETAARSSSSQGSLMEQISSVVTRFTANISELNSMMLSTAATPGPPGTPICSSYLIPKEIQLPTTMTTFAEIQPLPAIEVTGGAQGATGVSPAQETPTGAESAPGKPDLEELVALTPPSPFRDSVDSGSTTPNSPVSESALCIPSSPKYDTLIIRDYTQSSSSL
Procedure: The cells were loaded with a Ca2+-sensitive fluorescent dye (e.g., Fluo-4), and the plates were washed and placed in the FDSS instrument. Test compound was applied to cells 3 seconds after baseline readings were taken. Cells were incubated with the test compounds for 140 seconds and then stimulated with an EC20 concentration of an mGluR5 agonist (e.g., glutamate, 3,5-dihydroxyphenylglycine, or quisqualate); 60-80 seconds later an EC80 concentration of agonist was added and readings taken for an additional 40 seconds. Data were collected at 1 Hz. […] Concentration response curves were generated using a four parameter logistical equation.
The above described assay was operated in two modes. In the first mode (utilizing a triple add protocol), a range of concentrations of the present compounds were added to cells, followed by two single fixed concentrations of agonist (EC20 followed by EC80). If a compound acted as a potentiator, an EC50 value for potentiation of the EC20 response and a maximum extent of potentiation by the compound at this concentration of agonist was determined by non-linear curve fitting. If a compound acted as an antagonist, an IC50 value for antagonism of the EC80 response and a maximum extent of antagonism by the compound at this concentration of agonist was determined by non-linear curve fitting. In the second mode (utilizing a double add protocol), several fixed concentrations of the present compounds were added to various wells on a plate, followed by a range of concentrations of agonist for each concentration of present compound; the EC50 values for the agonist at each concentration of compound were determined by nonlinear curve fitting. A decrease in the EC50 value of the agonist with increasing concentrations of the present compounds (a leftward shift of the agonist concentration-response curve) is an indication of the degree of mGluR5 positive allosteric modulation at a given concentration of the present compound. An increase in the EC50 value of the agonist with increasing concentrations of the present compounds (a rightward shift of the agonist concentration response curve) is an indication of the degree of mGluR5 antagonism at a given concentration of the present compound. The second mode also indicates whether the present compounds also affect the maximum response to mGluR5 to agonists.
The mGluR5 activity was determined using the metabotropic glutamate receptor activity assays in human embryonic kidney cells as described herein, wherein the human embryonic kidney cells were transfected with rat mGluR5. The mGluR5 activity data for some compounds are shown as the average of at least three experiments with the standard error in these cases. If no error is indicated for the mGluR5 activity, the values given represent the results from a single experiment or the average of two experiments.

Compound	IC50 [µM]
CN(c1cccnc1)c1cc(Cl)cc(C(=O)Nc2nccs2)c1	0.648
Cc1cncc(NC(=O)c2cc(Cl)cc(N(C)c3cncnc3)c2)c1	> 10
N#Cc1csc(NC(=O)c2cccc(Oc3cccnc3)c2)n1	3.59
Cc1cncc(NC(=O)c2cc(F)cc(Oc3cncnc3)c2)c1	> 10
O=C(Nc1ccc(F)cn1)c1cccc(Oc2cccnc2)c1	7.45
O=C(Nc1ccncn1)c1cccc(Oc2cccnc2)c1	> 10
Cc1cc(NC(=O)c2cc(Cl)cc(Oc3cncnc3)c2)ncc1F	2.78
O=C(Nc1nccs1)c1cc(F)cc(Oc2cncnc2)c1	5.16
CN(c1cccnc1)c1cc(F)cc(C(=O)Nc2nccs2)c1	1.25
Cc1cncc(NC(=O)c2cc(Cl)cc(Oc3cncnc3)c2)c1	> 10
CCc1ccnc(NC(=O)c2cc(Cl)cc(Oc3cncnc3)c2)c1	4.16
O=C(Nc1nc(C(F)(F)F)cs1)c1cccc(Oc2cccnc2)c1	> 30
COc1cccc(NC(=O)c2cc(F)cc(Oc3cncnc3)c2)n1	1.06
Cc1nsc(NC(=O)c2cccc(Oc3cccnc3)c2)n1	> 30
O=C(Nc1nc(C(F)F)cs1)c1cc(Cl)cc(Oc2cncnc2)c1	0.389
Cc1nc(NC(=O)c2cc(F)cc(Oc3cncnc3)c2)sc1C(C)(C)C	> 10
Cc1nc(NC(=O)c2cc(Cl)cc(Oc3cncnc3)c2)sc1Br	3.7
CN(c1cncnc1)c1cc(Cl)cc(C(=O)Nc2ccc(Cl)cn2)c1	0.929
CN(c1cncnc1)c1cc(F)cc(C(=O)Nc2ccc(Cl)cn2)c1	> 30
O=C(Nc1ncc(F)cc1F)c1cc(Cl)cc(Oc2cncnc2)c1	> 30
O=C(Nc1ccc(F)c(CF)n1)c1cc(F)cc(Oc2cncnc2)c1	4.54
CN(c1cccnc1)c1cccc(C(=O)Nc2nccs2)c1	3.56
CN(c1cccnc1)c1cc(F)cc(C(=O)Nc2nc(C#N)cs2)c1	2.19
O=C(Nc1ccc(F)c(C(F)F)n1)c1cc(Cl)cc(Oc2cncnc2)c1	0.779
Cc1cncc(NC(=O)c2cc(F)cc(N(C)c3cncnc3)c2)c1	> 10
O=C(Nc1ncccc1F)c1cc(Cl)cc(Oc2cncnc2)c1	> 10
O=C(Nc1nccs1)c1cccc(Oc2cncnc2)c1	4.55

These reach a lower IC50. Values come first.

IC50 [µM]	Compound
0.36	Cc1nc(NC(=O)c2cc(F)cc(Oc3cncnc3)c2)ccc1F
0.345	O=C(Nc1nc(C2CC2)cs1)c1cc(F)cc(Oc2cncnc2)c1
0.296	Cc1csc(NC(=O)c2cccc(Oc3cccnc3)c2)n1
0.262	CN(c1cncnc1)c1cc(Cl)cc(C(=O)Nc2cc(Cl)ccn2)c1
0.198	O=C(Nc1nc(C2CC2)cs1)c1cc(Cl)cc(Oc2cncnc2)c1
0.176	Cc1csc(NC(=O)c2cc(F)cc(N(C)c3cccnc3)c2)n1
0.106	CN(c1cncnc1)c1cc(F)cc(C(=O)Nc2cc(Cl)ccn2)c1
0.087	O=C(Nc1ccc(Cl)cn1)c1cc(Cl)cc(Oc2cncnc2)c1
0.065	Cc1csc(NC(=O)c2cccc(Oc3cncnc3)c2)n1
0.054	Cc1nc(NC(=O)c2cc(Cl)cc(Oc3cncnc3)c2)ccc1F
0.052	Cc1nc(NC(=O)c2cc(F)cc(Oc3cncnc3)c2)sc1F
0.049	Cc1csc(NC(=O)c2cc(Cl)cc(N(C)c3cccnc3)c2)n1
0.022	Cc1cc(Oc2cncnc2)cc(C(=O)Nc2ccc(F)cn2)c1
0.0065	Cc1csc(NC(=O)c2cc(Cl)cc(Oc3cccnc3)c2)n1
